Source: ChEMBL document CHEMBL3885861, “Open TG-GATES”

Organism: Rattus norvegicus
Test: Open TG-GATES - Regimen: Single
Type: toxicity, organism-based, Sprague-Dawley
Parameters: regimen Single, gender Male, age 6 weeks
Conditions: in vivo, po, 0 mg/kg, route gavage, dose level Control; for APTT / Bas / Eos / Fbg / Hb / Ht / Lym / MCH / MCHC / MCV / Mono / Neu / PT / Plat / RBC / Ret / WBC: tissue Blood; for KIDNEY_L / KIDNEY_R / KIDNEY_TOTAL: tissue Kidney; for LIVER: tissue Liver; for A/G / ALP / ALT / AST / BUN / CRE / Ca / Cl / DBIL / GLC / IP / K / LDH / Na / PL / RALB / TBIL / TC / TG / TP / gamma-GTP: tissue Plasma

## CCSCC[C@H](N)C(=O)O [ETHIONINE]
3 h
  TERMINAL_BW: 218.5 g
  APTT: 19 s
  Bas: 0%
  Eos: 1%
  Fbg: 216.6 mg/dL
  Hb: 13.4 g/dL
  Ht: 39.8%
  Lym: 79.6%
  MCH: 21.1 pg
  MCHC: 33.5%
  MCV: 62.9 fL
  Mono: 3%
  Neu: 16.4%
  PT: 12.5 s
  Plat: 122 x10_4/uL
  RBC: 632.8 x10_4/ul
  Ret: 7.4%
  WBC: 83.3 x10_2/uL
  KIDNEY_L: 1 g
  KIDNEY_R: 1 g
  KIDNEY_TOTAL: 1.9 g
  LIVER: 10.3 g
  A/G: 1.6
  ALP: 974.2 IU/L
  ALT: 35.6 IU/L
  AST: 64.4 IU/L
  BUN: 11.6 mg/dL
  CRE: 0.4 mg/dL
  Ca: 10.6 mg/dL
  Cl: 100.6 meq/L
  DBIL: 0.066 mg/dL
  GLC: 196.6 mg/dL
  IP: 9.3 mg/dL
  K: 3.9 meq/L
  LDH: 172.8 IU/L
  Na: 140.2 meq/L
  PL: 136.8 mg/dL
  RALB: 3.3 g/dL
  TBIL: 0.1 mg/dL
  TC: 70.6 mg/dL
  TG: 80.8 mg/dL
  TP: 5.4 g/dL
  gamma-GTP: 1 IU/L
6 h
  TERMINAL_BW: 211.6 g
  APTT: 18.9 s
  Bas: 0%
  Eos: 1%
  Fbg: 229 mg/dL
  Hb: 13.6 g/dL
  Ht: 40%
  Lym: 81.8%
  MCH: 21.3 pg
  MCHC: 34.1%
  MCV: 62.5 fL
  Mono: 2.8%
  Neu: 13.2%
  PT: 12.8 s
  Plat: 111.7 x10_4/uL
  RBC: 640.6 x10_4/ul
  Ret: 6.9%
  WBC: 79.1 x10_2/uL
  KIDNEY_L: 1 g
  KIDNEY_R: 0.9 g
  KIDNEY_TOTAL: 1.9 g
  LIVER: 9 g
  A/G: 1.5
  ALP: 1036.8 IU/L
  ALT: 38.6 IU/L
  AST: 70.6 IU/L
  BUN: 10.6 mg/dL
  CRE: 0.4 mg/dL
  Ca: 10.4 mg/dL
  Cl: 102.4 meq/L
  DBIL: 0.076 mg/dL
  GLC: 196 mg/dL
  IP: 9.5 mg/dL
  K: 3.7 meq/L
  LDH: 189 IU/L
  Na: 140.6 meq/L
  PL: 145 mg/dL
  RALB: 3.3 g/dL
  TBIL: 0.1 mg/dL
  TC: 78 mg/dL
  TG: 88.6 mg/dL
  TP: 5.5 g/dL
  gamma-GTP: 1 IU/L
9 h
  TERMINAL_BW: 213.3 g
  APTT: 19 s
  Bas: 0%
  Eos: 1%
  Fbg: 224.8 mg/dL
  Hb: 13 g/dL
  Ht: 38.3%
  Lym: 76.8%
  MCH: 21.2 pg
  MCHC: 34%
  MCV: 62.4 fL
  Mono: 2.4%
  Neu: 19.2%
  PT: 13 s
  Plat: 123.8 x10_4/uL
  RBC: 615 x10_4/ul
  Ret: 6.9%
  WBC: 90.6 x10_2/uL
  KIDNEY_L: 1 g
  KIDNEY_R: 1 g
  KIDNEY_TOTAL: 1.9 g
  LIVER: 9.1 g
  A/G: 1.5
  ALP: 936 IU/L
  ALT: 31.2 IU/L
  AST: 63 IU/L
  BUN: 10 mg/dL
  CRE: 0.4 mg/dL
  Ca: 10.4 mg/dL
  Cl: 102.6 meq/L
  DBIL: 0.062 mg/dL
  GLC: 203.4 mg/dL
  IP: 9.4 mg/dL
  K: 3.6 meq/L
  LDH: 187.2 IU/L
  Na: 141.2 meq/L
  PL: 140 mg/dL
  RALB: 3.3 g/dL
  TBIL: 0.1 mg/dL
  TC: 79.6 mg/dL
  TG: 53.6 mg/dL
  TP: 5.5 g/dL
  gamma-GTP: 1 IU/L
24 h
  TERMINAL_BW: 228.7 g
  APTT: 20.7 s
  Bas: 0%
  Eos: 1%
  Fbg: 226 mg/dL
  Hb: 14 g/dL
  Ht: 41.5%
  Lym: 80.6%
  MCH: 21.8 pg
  MCHC: 33.8%
  MCV: 64.4 fL
  Mono: 2.6%
  Neu: 14.8%
  PT: 12.1 s
  Plat: 126 x10_4/uL
  RBC: 644.2 x10_4/ul
  Ret: 6.6%
  WBC: 105.3 x10_2/uL
  KIDNEY_L: 1 g
  KIDNEY_R: 1 g
  KIDNEY_TOTAL: 2 g
  LIVER: 11.1 g
  A/G: 1.5
  ALP: 936 IU/L
  ALT: 41 IU/L
  AST: 66.8 IU/L
  BUN: 14.4 mg/dL
  CRE: 0.4 mg/dL
  Ca: 10.7 mg/dL
  Cl: 102 meq/L
  DBIL: 0.096 mg/dL
  GLC: 211.6 mg/dL
  IP: 8.1 mg/dL
  K: 3.8 meq/L
  LDH: 183.8 IU/L
  Na: 140.2 meq/L
  PL: 156.6 mg/dL
  RALB: 3.4 g/dL
  TBIL: 0.1 mg/dL
  TC: 81 mg/dL
  TG: 99.2 mg/dL
  TP: 5.7 g/dL
  gamma-GTP: 1.2 IU/L
